Assay results reported in PMC9403987 (Frontiers in Oncology, 2022).

How the values were obtained:
Assay in all cases: Cell proliferation assay
Assay type in all cases: cell-based, Homo sapiens
NCI-H358 = details: NCI-H358, lung, NSCLC, 72 hours
Experimental: (§1) To quantify cell proliferation, either the nuclei of live cells were counted following staining with 4’,6-diamidino-2-phenylindole (DAPI; Sigma-Aldrich, Burlington, MA, USA), or metabolically active cells were detected using a CellTiter-Glo assay (Promega Corporation, Madison, WI, USA). Cells from a range of human and mammalian tumor cell lines (American Type Culture Collection, Manassas, VA, USA) were seeded at 4000 cells per well in 100 μL of culture medium in a 96-well plate and incubated overnight at 37°C with 5% CO2. […] In the DAPI staining method, cells were washed using 1× phosphate-buffered saline (PBS; Gibco Thermo Fisher Scientific, Waltham, MA, USA), fixed with 4% formaldehyde, permeabilized with 0.2% Triton X-100 (Sigma-Aldrich), washed again, and stained with 1 μg/mL DAPI to visualize cell nuclei. Cells were washed with 1× PBS three times, and 100 μL 1× PBS was added to each well. Plates were scanned using an IN Cell Analyzer 2200 (GE Healthcare Life Sciences, Chicago, IL, USA) and the number of cells per well was recorded. In the CellTiter-Glo assay, 60 μL of CellTiter-Glo luminescent solution was added to each well after incubation with the test compounds, and the assay plate was scanned using a Tecan Infinite M1000 PRO microplate reader (Tecan Group AG, Männedorf, Switzerland) to record luminescent signals.

NCI-H1703 = details: NCI-H1703, lung, NSCLC, 72 hours
Experimental: as §1

U87/DK = details: brain, glioblastoma, 72 hours
Experimental: as §1

Du4475 = details: Du4475, breast carcinoma, 72 hours
Experimental: as §1

HCCC9810 = details: HCCC9810, liver, hepatocellular carcinoma, 72 hours
Experimental: as §1

LoVo = details: colorectal carcinoma, 72 hours
Experimental: as §1

SNU-368 = details: SNU-368, liver, hepatocellular carcinoma, 72 hours
Experimental: as §1

HCT15 = details: HCT15, colorectal carcinoma, 72 hours
Experimental: as §1

NCI-H1975 = details: NCI-H1975, lung, NSCLC, 72 hours
Experimental: as §1

HT29 = details: HT29, colon carcinoma, 72 hours
Experimental: as §1

NCI-H1155 = details: NCI-H1155, lung, NSCLC, 72 hours
Experimental: as §1

HCCLM3 = details: HCCLM3, liver, hepatocellular carcinoma, 72 hours
Experimental: as §1

NCI-H460 = details: NCI-H460, lung carcinoma, 72 hours
Experimental: as §1

SK-N-SH = details: brain, neuroblastoma, 72 hours
Experimental: as §1

U87-MG = details: brain, glioblastoma, 72 hours
Experimental: as §1

NCI-H1299 = details: NCI-H1299, lung, NSCLC, 72 hours
Experimental: as §1

NCI-H441 = details: NCI-H441, lung carcinoma, 72 hours
Experimental: as §1

MCF-10A = details: breast, non-malignant mammary epithelial, 72 hours
Experimental: as §1

KNS-81 = details: KNS-81, brain, glioblastoma, 72 hours
Experimental: as §1

SK-N-AS = details: brain, neuroblastoma, 72 hours
Experimental: as §1

KP-N-YN = details: neural, neuroblastoma, 72 hours
Experimental: as §1

MOG-G-UVW = details: brain, grade III astrocytoma, 72 hours
Experimental: as §1

NCI-H1581 = details: NCI-H1581, lung, NSCLC, 72 hours
Experimental: as §1

SW1088 = details: SW1088, brain, grade II astrocytoma, 72 hours
Experimental: as §1

PC-9 = details: PC-9, lung carcinoma, 72 hours
Experimental: as §1

DLD-2 = details: DLD-2, colorectal carcinoma, 72 hours
Experimental: as §1

T47D = details: breast carcinoma, 72 hours
Experimental: as §1

NCI-H2228 = details: NCI-H2228, lung, NSCLC, 72 hours
Experimental: as §1

MCF-7 = details: MCF-7, breast carcinoma, 72 hours
Experimental: as §1

Li-7 = details: Li-7, liver, hepatocellular carcinoma, 72 hours
Experimental: as §1

HLF = details: lung, epidermoid carcinoma, 72 hours
Experimental: as §1

COLO 205 = details: COLO 205, colon carcinoma, 72 hours
Experimental: as §1

SK-MES-1 = details: SK-MES-1, lung carcinoma, 72 hours
Experimental: as §1

SNU-886 = details: SNU-886, liver, hepatocellular carcinoma, 72 hours
Experimental: as §1

CCN1CCN(Cc2ccc(Nc3ncc(F)c(-c4cc(F)c5nc(C)n(C(C)C)c5c4)n3)nc2)CC1 [Abemaciclib, abemaciclib, reference compound]
IC50 (NCI-H358; Homo sapiens): 44 nM | IC50 (NCI-H1703; Homo sapiens): 93 nM | IC50 (U87/DK; Homo sapiens): 15 nM | IC50 (Du4475; Homo sapiens, DU-4475): 10000 nM | IC50 (HCCC9810; Homo sapiens): 71 nM | IC50 (LoVo; Homo sapiens): 25 nM | IC50 (SNU-368; Homo sapiens): 34 nM | IC50 (HCT15; Homo sapiens, HCT-15): 294 nM | IC50 (NCI-H1975; Homo sapiens): 112 nM | IC50 (HT29; Homo sapiens, HT-29): 1840 nM | IC50 (NCI-H1155; Homo sapiens): 2410 nM | IC50 (HCCLM3; Homo sapiens): 3100 nM | IC50 (NCI-H460; Homo sapiens): 654 nM | IC50 (SK-N-SH; Homo sapiens): 80 nM | IC50 (U87-MG; Homo sapiens, U-87 MG): 106 nM | IC50 (NCI-H1299; Homo sapiens): 463 nM | IC50 (NCI-H441; Homo sapiens): 40 nM | IC50 (MCF-10A; Homo sapiens): 1770 nM | IC50 (KNS-81; Homo sapiens): 106 nM | IC50 (SK-N-AS; Homo sapiens): 138 nM | IC50 (KP-N-YN; Homo sapiens): 827 nM | IC50 (MOG-G-UVW; Homo sapiens): 72 nM | IC50 (NCI-H1581; Homo sapiens): 3230 nM | IC50 (SW1088; Homo sapiens): 471 nM | IC50 (PC-9; Homo sapiens): 457 nM | IC50 (DLD-2; Homo sapiens, DLD2): 237 nM | IC50 (T47D; Homo sapiens): 12 nM | IC50 (NCI-H2228; Homo sapiens): 2070 nM | IC50 (MCF-7; Homo sapiens, MCF7): 6 nM | IC50 (Li-7; Homo sapiens): 6290 nM | IC50 (HLF; Homo sapiens): 4950 nM | IC50 (COLO 205; Homo sapiens): 432 nM | IC50 (SK-MES-1; Homo sapiens): 148 nM | IC50 (SNU-886; Homo sapiens): 25 nM

CC1=Nc2c(F)cc(-c3nc(Nc4ccc(C5CCN(C)CC5)cn4)ncc3F)cc2C12CCCC2 [GLR2007]
IC50 (NCI-H358): 17 nM | IC50 (NCI-H1703): 3 nM | IC50 (U87/DK): 3 nM | IC50 (Du4475): 2040 nM | IC50 (HCCC9810): 30 nM | IC50 (LoVo): 13 nM | IC50 (SNU-368): 13 nM | IC50 (HCT15): 43 nM | IC50 (NCI-H1975): 10 nM | IC50 (HT29): 601 nM | IC50 (NCI-H1155): 1820 nM | IC50 (HCCLM3): 1840 nM | IC50 (NCI-H460): 235 nM | IC50 (SK-N-SH): 32 nM | IC50 (U87-MG): 16 nM | IC50 (NCI-H1299): 564 nM | IC50 (NCI-H441): 7 nM | IC50 (MCF-10A): 2730 nM | IC50 (KNS-81): 33 nM | IC50 (SK-N-AS): 66 nM | IC50 (KP-N-YN): 657 nM | IC50 (MOG-G-UVW): 43 nM | IC50 (NCI-H1581): 1120 nM | IC50 (SW1088): 143 nM | IC50 (PC-9): 180 nM | IC50 (DLD-2): 33 nM | IC50 (T47D): 1 nM | IC50 (NCI-H2228): 2050 nM | IC50 (MCF-7): 2 nM | IC50 (Li-7): 712 nM | IC50 (HLF): 2010 nM | IC50 (COLO 205): 194 nM | IC50 (SK-MES-1): 67 nM | IC50 (SNU-886): 6 nM
